Source: ChEMBL document CHEMBL2069252, “Pyrazole diaminopyrimidines as dual inhibitors of KDR and Aurora B kinases” (Bioorg Med Chem Lett, 2012)

These compounds were tested against T1, Vascular endothelial growth factor receptor 2 (Homo sapiens, UniProt P35968) (assay: Inhibition of KDR by HTRF analysis in presence of 1 mM ATP). Details: not given.
T1 sequence (P35968 whole entry): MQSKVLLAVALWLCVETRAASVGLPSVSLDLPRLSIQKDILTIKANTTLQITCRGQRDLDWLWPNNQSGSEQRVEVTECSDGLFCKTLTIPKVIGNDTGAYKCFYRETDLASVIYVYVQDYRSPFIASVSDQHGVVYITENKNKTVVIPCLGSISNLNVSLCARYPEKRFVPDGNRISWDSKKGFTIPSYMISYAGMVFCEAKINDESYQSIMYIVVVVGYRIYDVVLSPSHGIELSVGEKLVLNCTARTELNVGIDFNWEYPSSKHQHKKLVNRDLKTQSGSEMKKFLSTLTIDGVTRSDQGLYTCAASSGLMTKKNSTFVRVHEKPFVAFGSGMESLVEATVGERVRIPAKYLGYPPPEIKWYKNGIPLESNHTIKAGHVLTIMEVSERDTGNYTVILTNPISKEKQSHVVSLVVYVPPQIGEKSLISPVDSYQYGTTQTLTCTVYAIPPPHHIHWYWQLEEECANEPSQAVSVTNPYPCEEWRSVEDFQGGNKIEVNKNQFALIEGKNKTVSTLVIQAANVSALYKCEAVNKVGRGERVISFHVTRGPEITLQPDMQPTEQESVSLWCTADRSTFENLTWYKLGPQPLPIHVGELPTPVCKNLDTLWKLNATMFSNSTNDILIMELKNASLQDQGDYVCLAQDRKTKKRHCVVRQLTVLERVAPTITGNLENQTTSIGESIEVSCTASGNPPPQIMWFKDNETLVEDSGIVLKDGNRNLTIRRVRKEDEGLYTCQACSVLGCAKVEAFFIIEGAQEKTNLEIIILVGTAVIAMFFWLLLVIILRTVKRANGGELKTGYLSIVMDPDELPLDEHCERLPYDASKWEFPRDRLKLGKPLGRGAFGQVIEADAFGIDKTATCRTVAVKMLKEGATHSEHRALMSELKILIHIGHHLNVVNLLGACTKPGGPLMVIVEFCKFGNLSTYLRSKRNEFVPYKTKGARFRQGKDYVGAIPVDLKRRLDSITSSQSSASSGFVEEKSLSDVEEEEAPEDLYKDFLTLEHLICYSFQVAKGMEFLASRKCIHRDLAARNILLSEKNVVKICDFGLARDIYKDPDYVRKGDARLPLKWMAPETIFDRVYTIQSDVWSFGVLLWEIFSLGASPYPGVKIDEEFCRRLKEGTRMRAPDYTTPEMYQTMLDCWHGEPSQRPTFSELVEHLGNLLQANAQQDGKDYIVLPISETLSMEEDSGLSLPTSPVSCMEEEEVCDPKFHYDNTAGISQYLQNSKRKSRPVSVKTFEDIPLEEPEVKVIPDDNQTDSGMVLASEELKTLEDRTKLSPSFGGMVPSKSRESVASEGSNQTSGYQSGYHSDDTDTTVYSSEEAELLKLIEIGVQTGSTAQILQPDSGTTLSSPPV

SMILES | IC50
Cn1cc(Nc2ncc(C(F)(F)F)c(N[C@H]3[C@@H](C(N)=O)C[C@H]4C[C@@H]3C4(C)C)n2)cn1 | 264 nM
Cn1cc(Nc2ncc([N+](=O)[O-])c(N[C@H]3[C@@H](C(N)=O)[C@@H]4C=C[C@H]3C4)n2)cn1 | 50 nM
Cn1cc(Nc2ncc(C(F)(F)F)c(Nc3ccccc3C(N)=O)n2)cn1 | 431 nM
Cn1cc(Nc2ncc(Cl)c(N[C@@H]3[C@H]4CC[C@H](C4)[C@@H]3C(N)=O)n2)cn1 | 19 nM
Cn1cc(Nc2ncc(C(F)(F)F)c(N[C@@H]3[C@H]4CC[C@H](C4)[C@@H]3C(N)=O)n2)cn1 | 74 nM
Cn1cc(Nc2nccc(N[C@H]3[C@@H](C(N)=O)[C@@H]4C=C[C@H]3C4)n2)cn1 | > 12000 nM
Cn1cc(Nc2ncc(Cl)c(N[C@H]3[C@@H](C(N)=O)[C@@H]4CC[C@H]3O4)n2)cn1 | 693 nM
Cn1cc(Nc2ncc(Cl)c(N[C@H]3[C@H]4CC[C@H](C4)[C@H]3C(N)=O)n2)cn1 | 19 nM

Further lines, results first:

IC50 | SMILES
922 nM | COc1cnc(Nc2cnn(C)c2)nc1N[C@H]1[C@@H](C(N)=O)[C@@H]2C=C[C@H]1C2
1540 nM | Cn1cc(Nc2ncc(C(N)=O)c(N[C@H]3[C@@H](C(N)=O)[C@@H]4C=C[C@H]3C4)n2)cn1
12 nM | Cn1cc(Nc2ncc(C(F)(F)F)c(N[C@H]3[C@@H](C(N)=O)[C@@H]4C=C[C@H]3C4)n2)cn1
467 nM | Cc1cnc(Nc2cnn(C)c2)nc1N[C@H]1[C@@H](C(N)=O)[C@@H]2C=C[C@H]1C2
68 nM | CNC(=O)[C@@H]1[C@H](Nc2nc(Nc3cnn(C)c3)ncc2C(F)(F)F)[C@H]2C=C[C@@H]1C2
266 nM | Cn1cc(Nc2ncc(C(F)(F)F)c(N[C@H]3[C@@H](C(=O)NCCO)[C@@H]4C=C[C@H]3C4)n2)cn1
329 nM | Cn1cc(Nc2ncc(F)c(N[C@H]3[C@@H](C(N)=O)[C@@H]4C=C[C@H]3C4)n2)cn1

What follows are compounds tested against T1, Vascular endothelial growth factor receptor 2 (assay: Inhibition of human KDR autophosphorylation expressed in mouse NIH/3T3 cells). Details: not given.
Assay type: cell-based, NIH3T3

SMILES | IC50
Cn1cc(Nc2ncc([N+](=O)[O-])c(N[C@H]3[C@@H](C(N)=O)[C@@H]4C=C[C@H]3C4)n2)cn1 | > 316 nM
Cn1cc(Nc2ncc(Cl)c(N[C@@H]3[C@H]4CC[C@H](C4)[C@@H]3C(N)=O)n2)cn1 | 84 nM
Cn1cc(Nc2ncc(C(F)(F)F)c(N[C@@H]3[C@H]4CC[C@H](C4)[C@@H]3C(N)=O)n2)cn1 | 61 nM
Cn1cc(Nc2ncc(Cl)c(N[C@H]3[C@H]4CC[C@H](C4)[C@H]3C(N)=O)n2)cn1 | > 316 nM

Now from value to compound:

IC50 | SMILES
35 nM | Cn1cc(Nc2ncc(C(F)(F)F)c(N[C@H]3[C@@H](C(N)=O)[C@@H]4C=C[C@H]3C4)n2)cn1
> 316 nM | CNC(=O)[C@@H]1[C@H](Nc2nc(Nc3cnn(C)c3)ncc2C(F)(F)F)[C@H]2C=C[C@@H]1C2

The compounds below were run against Aurora kinase B (Homo sapiens, UniProt Q96GD4) (assay: Inhibition of Aurora B kinase by HTRF analysis in presence of 1 mM ATP). Details: not given.
Sequence of Aurora kinase B (Q96GD4 whole entry): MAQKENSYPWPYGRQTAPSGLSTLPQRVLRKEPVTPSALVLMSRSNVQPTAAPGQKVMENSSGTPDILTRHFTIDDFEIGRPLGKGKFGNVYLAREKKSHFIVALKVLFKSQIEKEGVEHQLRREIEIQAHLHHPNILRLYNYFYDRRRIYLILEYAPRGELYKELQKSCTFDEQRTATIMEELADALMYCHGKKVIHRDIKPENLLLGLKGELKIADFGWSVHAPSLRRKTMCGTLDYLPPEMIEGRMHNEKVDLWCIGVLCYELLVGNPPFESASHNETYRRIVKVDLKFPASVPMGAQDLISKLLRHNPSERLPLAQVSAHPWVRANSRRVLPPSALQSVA

SMILES | IC50
Cc1cc(Nc2ncc(F)c(N[C@H]3[C@@H](C(N)=O)[C@@H]4C=C[C@H]3C4)n2)ccc1N1CCN(C)CC1 | 54 nM
Cn1cc(Nc2ncc(C(F)(F)F)c(N[C@H]3[C@@H](C(N)=O)C[C@H]4C[C@@H]3C4(C)C)n2)cn1 | 43 nM
Cn1cc(Nc2ncc([N+](=O)[O-])c(N[C@H]3[C@@H](C(N)=O)[C@@H]4C=C[C@H]3C4)n2)cn1 | 15 nM
Cn1cc(Nc2ncc(C(F)(F)F)c(Nc3ccccc3C(N)=O)n2)cn1 | 16 nM
Cn1cc(Nc2ncc(Cl)c(N[C@@H]3[C@H]4CC[C@H](C4)[C@@H]3C(N)=O)n2)cn1 | 8 nM
Cn1cc(Nc2ncc(C(F)(F)F)c(N[C@@H]3[C@H]4CC[C@H](C4)[C@@H]3C(N)=O)n2)cn1 | 66 nM
Cn1cc(Nc2nccc(N[C@H]3[C@@H](C(N)=O)[C@@H]4C=C[C@H]3C4)n2)cn1 | 294 nM
Cn1cc(Nc2ncc(Cl)c(N[C@H]3[C@@H](C(N)=O)[C@@H]4CC[C@H]3O4)n2)cn1 | 118 nM
Cn1cc(Nc2ncc(Cl)c(N[C@H]3[C@H]4CC[C@H](C4)[C@H]3C(N)=O)n2)cn1 | 31 nM

More lines, now with the values ahead:

IC50 | SMILES
145 nM | COc1cnc(Nc2cnn(C)c2)nc1N[C@H]1[C@@H](C(N)=O)[C@@H]2C=C[C@H]1C2
197 nM | Cn1cc(Nc2ncc(C(N)=O)c(N[C@H]3[C@@H](C(N)=O)[C@@H]4C=C[C@H]3C4)n2)cn1
28 nM | Cn1cc(Nc2ncc(C(F)(F)F)c(N[C@H]3[C@@H](C(N)=O)[C@@H]4C=C[C@H]3C4)n2)cn1
252 nM | Cc1cnc(Nc2cnn(C)c2)nc1N[C@H]1[C@@H](C(N)=O)[C@@H]2C=C[C@H]1C2
45 nM | CNC(=O)[C@@H]1[C@H](Nc2nc(Nc3cnn(C)c3)ncc2C(F)(F)F)[C@H]2C=C[C@@H]1C2
99 nM | Cn1cc(Nc2ncc(C(F)(F)F)c(N[C@H]3[C@@H](C(=O)NCCO)[C@@H]4C=C[C@H]3C4)n2)cn1
29 nM | Cn1cc(Nc2ncc(F)c(N[C@H]3[C@@H](C(N)=O)[C@@H]4C=C[C@H]3C4)n2)cn1

What follows are compounds tested on NCI-H1299 (assay: Cell cycle arrest in human NCI-H1299 cells assessed as induction of polyploidy after 48 hrs by Hoechst staining-based fluorescence microscopic analysis). Details: NCI-H1299, 48 h.
Assay type: functional

SMILES | EC15
Cc1cc(Nc2ncc(F)c(N[C@H]3[C@@H](C(N)=O)[C@@H]4C=C[C@H]3C4)n2)ccc1N1CCN(C)CC1 | 1 nM
Cn1cc(Nc2ncc(C(F)(F)F)c(N[C@H]3[C@@H](C(N)=O)C[C@H]4C[C@@H]3C4(C)C)n2)cn1 | 39 nM
Cn1cc(Nc2ncc([N+](=O)[O-])c(N[C@H]3[C@@H](C(N)=O)[C@@H]4C=C[C@H]3C4)n2)cn1 | 51 nM
Cn1cc(Nc2ncc(C(F)(F)F)c(N[C@H]3[C@@H](C(N)=O)[C@@H]4C=C[C@H]3C4)n2)cn1 | 3 nM
Cn1cc(Nc2ncc(C(F)(F)F)c(Nc3ccccc3C(N)=O)n2)cn1 | 11 nM
Cc1cnc(Nc2cnn(C)c2)nc1N[C@H]1[C@@H](C(N)=O)[C@@H]2C=C[C@H]1C2 | 11 nM
CNC(=O)[C@@H]1[C@H](Nc2nc(Nc3cnn(C)c3)ncc2C(F)(F)F)[C@H]2C=C[C@@H]1C2 | < 1 nM
Cn1cc(Nc2ncc(Cl)c(N[C@@H]3[C@H]4CC[C@H](C4)[C@@H]3C(N)=O)n2)cn1 | 1 nM
Cn1cc(Nc2ncc(C(F)(F)F)c(N[C@@H]3[C@H]4CC[C@H](C4)[C@@H]3C(N)=O)n2)cn1 | 10 nM
Cn1cc(Nc2nccc(N[C@H]3[C@@H](C(N)=O)[C@@H]4C=C[C@H]3C4)n2)cn1 | 93 nM
Cn1cc(Nc2ncc(C(F)(F)F)c(N[C@H]3[C@@H](C(=O)NCCO)[C@@H]4C=C[C@H]3C4)n2)cn1 | < 1 nM
Nc1ncc(-c2cnn(CCO)c2)c2scc(-c3ccc(NC(=O)Nc4cccc(F)c4)cc3)c12 [ILORASERTIB] | 12 nM
Cn1cc(Nc2ncc(F)c(N[C@H]3[C@@H](C(N)=O)[C@@H]4C=C[C@H]3C4)n2)cn1 | 111 nM
Cn1cc(Nc2ncc(Cl)c(N[C@H]3[C@@H](C(N)=O)[C@@H]4CC[C@H]3O4)n2)cn1 | 132 nM
Cn1cc(Nc2ncc(Cl)c(N[C@H]3[C@H]4CC[C@H](C4)[C@H]3C(N)=O)n2)cn1 | 15 nM
